Assay results published in patent publication EP0461815A1, “Anti-HBV pyrimidine nucleoside” (THE WELLCOME FOUNDATION LIMITED, priority 1990, dated 1991).
Like-named read-outs stand apart in the source and are kept apart here.

Legend:
[1] = Cell toxicity, cell growth inhibition assay (MTT uptake); type: cell-based; conditions: monkey, Vero cells, 50% inhibition of cell viability at 96 hours, read-out: cell toxicity (CCID₅₀)
Protocol: Cell toxicity is assessed in a cell growth inhibition assay. Subconfluent cultures of Vero cells grown on 96-well microtiter dishes are exposed to different dilutions of drug, and cell viability determined daily on replicate cultures using uptake of a tetrazolium dye (MTT). The concentration requried for a 50% inhibition of cell viability at 96 hours is termed CCID₅₀.

Hepatitis B Virus (HBV) = assay: Anti-HBV activity in HBV producer cell line HepG2 2.2.15: reduction of extracellular virion DNA and intracellular replicative intermediates; type: cell-based
Protocol: The human HBV producer cell line of HepG2, 2.2.15, described and characterized by Sells et al., PNAS 84:1005, 1987 and J. Virol. […] This cell line was utilized in vitro to identify compounds with anti-HBV activity.
Monolayer cultures were treated with 1-100µM of the active compound 1-(β-D-arabinofuranosyl)-5-prop-1-ynyluracil, for ten days. Supernatant media containing extracellular virion DNA (Dane particles) were harvested on day ten, treated with proteinase K (1 mg/mL) and sodium dodecyl sulfate (1%), and incubated at 50°C for one hour. DNA was extracted with equal volumes of phenol followed by chloroform and then precipitated by ammonium acetate and propanol. The DNA precipitate was dissolved and collected on nitrocellulose using the procedure of Schleicher and Schuell (S & S, 10 Optical Ave., Keene, NH 03431, Publication #700, 1987), and treated as described by Southern, J. Mol. Biol. 98:503, 1975. Cells were harvested, and the intracellular DNA. was obtained after cell lysis with guanidine isothiocyanate. The intracellular DNA was handled in the same manner as the extracellular DNA. After precipitation by ammonium acetate and propanol, the intracellular DNA precipitate was dissolved, cut by restriction endonuclease, Hind III, applied to agarose gel and then treated as described by Southern to determine the quantity of replicative intermediate forms. The antiviral effect of the drug was determined by measuring a reduction of the amount of Dane particles extruded into the culture medium (extracellular DNA) and a similar decrease in tie intracellular replicative intermediates (intracellular replicative form).

[2] = HepG2 2.2.15, 240 h, Expt. 5, HepG2 2.2.15 cells, ten days, read-out: Percent (Reduction) Inhibition of Hepatitus B Virus DNA in Extracellular Media
[3] = HepG2 2.2.15, 240 h, Expt. 6, HepG2 2.2.15 cells, ten days, read-out: Percent (Reduction) Inhibition of Hepatitus B Virus DNA in Extracellular Media

For `CC#Cc1cn([C@@H]2O[C@H](CO)[C@@H](O)[C@@H]2O)c(=O)[nH]c1=O` [1-(β-D-Arabinofuranosyl)-5-prop-1-ynyluracil], the CC50 at 96 h [1] was over 500 µM, the “Percent (Reduction) Inhibition of Hepatitus B Virus DNA in Extracellular Media” value (Hepatitis B Virus (HBV); Expt. 5, 11μM, HepG2 2.2.15 cells, ten days) was “N.I” and the “Percent (Reduction) Inhibition of Hepatitus B Virus DNA in Extracellular Media” value (Hepatitis B Virus (HBV); Expt. 6, 37μM, HepG2 2.2.15 cells, ten days) was “N.I”. For the same compound, the inhibition at 33 µM (Hepatitis B Virus (HBV); [2]) was 87.4%, the inhibition at 37 µM (Hepatitis B Virus (HBV); HepG2 2.2.15, 240 h, Expt. 5, 37μM, HepG2 2.2.15 cells, ten days, read-out: Percent (Reduction) Inhibition of Hepatitus B Virus DNA in Extracellular Media) was 55.3% and the inhibition at 100 µM (Hepatitis B Virus (HBV); [2]) was 94.4%. The inhibition at 11 µM (Hepatitis B Virus (HBV); HepG2 2.2.15, 240 h, Expt. 6, 11μM, HepG2 2.2.15 cells, ten days, read-out: Percent (Reduction) Inhibition of Hepatitus B Virus DNA in Extracellular Media) was 71.5%, the inhibition at 33 µM (Hepatitis B Virus (HBV); [3]) was 89.1% and the inhibition at 100 µM (Hepatitis B Virus (HBV); [3]) was 98.5%. For the same compound, the inhibition at 100 µM (Hepatitis B Virus (HBV); Hepatitis B virus, HepG2 2.2.15, 240 h, Expt. 5, value in parentheses, read-out: % reduction in intracellular hepatitis B virus DNA replicative form) was 88%, the inhibition at 100 µM (Hepatitis B Virus (HBV); Hepatitis B virus, HepG2 2.2.15, 240 h, Expt. 6, value in parentheses, read-out: % reduction in intracellular hepatitis B virus DNA replicative form) was 95.3% and the inhibition at 1 µM (Hepatitis B Virus (HBV); Hepatitis B virus, HepG2 2.2.15, Expt.7, 1μM, read-out: Percent Inhibition of Hepatitis B Specific Intracellular Replicative Form (RF) DNA) was 35%. The inhibition at 10 µM (Hepatitis B Virus (HBV); Hepatitis B virus, HepG2 2.2.15, Expt.7, 10μM, read-out: Percent Inhibition of Hepatitis B Specific Intracellular Replicative Form (RF) DNA) was 33% and the inhibition at 100 µM (Hepatitis B Virus (HBV); Hepatitis B virus, HepG2 2.2.15, Expt.7, read-out: Percent Inhibition of Hepatitis B Specific Intracellular Replicative Form (RF) DNA) was 42%.
